In brackets after ≈: the same amount, converted by molar mass.
Key:
[1] = Tmax in mouse at 100 mg/kg, po; type: ADME, organism-based; set-up: dose 100 mg/kg, route oral; settings: in vivo
[2] = Inhibition of CYP450 (unknown origin); type: ADME; settings: human
Mus musculus [3] = assay: Antiobesity activity in C57Bl6J mouse assessed as inhibition of corn oil-induced triacylglycerol excursion at 150 mg/kg, po administered at 30 mins post corn-oil challenge measured after 2 hrs by oral lipid tolerance test relative to control; type: functional
[4] = target: T1, Acyl-CoA wax alcohol acyltransferase 2 (Homo sapiens, UniProt Q6E213); assay: Inhibition of human recombinant AWAT2 expressed in insect cell membrane using cetyl alcohol and [14C]oleoyl coenzyme A as substrate after 10 to 15 mins by liquid scintillation counting
T1 sequence (Q6E213 whole entry): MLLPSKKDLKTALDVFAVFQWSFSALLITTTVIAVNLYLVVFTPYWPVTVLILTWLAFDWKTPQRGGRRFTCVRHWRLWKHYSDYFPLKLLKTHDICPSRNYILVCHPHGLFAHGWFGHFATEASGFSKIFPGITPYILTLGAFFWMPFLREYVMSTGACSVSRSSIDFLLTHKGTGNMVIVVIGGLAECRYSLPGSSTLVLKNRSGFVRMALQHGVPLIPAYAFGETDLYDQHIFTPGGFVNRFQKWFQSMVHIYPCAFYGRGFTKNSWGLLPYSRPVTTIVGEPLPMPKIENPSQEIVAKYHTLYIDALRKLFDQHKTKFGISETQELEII

[5] = Intrinsic clearance in human liver microsomes as 1 umol/l measured up to 30 mins by LC-MS analysis; type: ADME, Microsome; settings: read-out: CLH
[6] = target: T2, Diacylglycerol O-acyltransferase 2 (Homo sapiens, UniProt Q96PD7); assay: Inhibition of human recombinant DGAT2 using dioleoyl-sn-glycerol and [14C]oleoyl coenzyme A as substrate after 30 mins by liquid scintillation counting
T2 sequence (Q96PD7 whole entry): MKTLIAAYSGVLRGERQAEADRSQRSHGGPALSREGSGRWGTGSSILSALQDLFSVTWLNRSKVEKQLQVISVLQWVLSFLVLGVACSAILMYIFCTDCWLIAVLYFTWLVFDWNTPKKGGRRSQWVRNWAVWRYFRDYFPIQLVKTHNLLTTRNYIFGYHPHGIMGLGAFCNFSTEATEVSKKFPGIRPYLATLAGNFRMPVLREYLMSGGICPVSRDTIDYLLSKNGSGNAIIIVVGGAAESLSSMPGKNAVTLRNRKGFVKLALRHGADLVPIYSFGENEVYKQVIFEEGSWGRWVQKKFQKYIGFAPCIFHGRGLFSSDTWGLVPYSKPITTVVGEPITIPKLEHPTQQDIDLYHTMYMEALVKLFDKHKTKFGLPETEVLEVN

[7] = target: T3, Diacylglycerol O-acyltransferase 1 (Homo sapiens, UniProt O75907); assay: Inhibition of human recombinant DGAT1 expressed in Sf9 cells using dioleoyl-sn-glycerol and [14C]oleoyl coenzyme A as substrate after 30 mins by liquid scintillation counting
T3 sequence (O75907 whole entry): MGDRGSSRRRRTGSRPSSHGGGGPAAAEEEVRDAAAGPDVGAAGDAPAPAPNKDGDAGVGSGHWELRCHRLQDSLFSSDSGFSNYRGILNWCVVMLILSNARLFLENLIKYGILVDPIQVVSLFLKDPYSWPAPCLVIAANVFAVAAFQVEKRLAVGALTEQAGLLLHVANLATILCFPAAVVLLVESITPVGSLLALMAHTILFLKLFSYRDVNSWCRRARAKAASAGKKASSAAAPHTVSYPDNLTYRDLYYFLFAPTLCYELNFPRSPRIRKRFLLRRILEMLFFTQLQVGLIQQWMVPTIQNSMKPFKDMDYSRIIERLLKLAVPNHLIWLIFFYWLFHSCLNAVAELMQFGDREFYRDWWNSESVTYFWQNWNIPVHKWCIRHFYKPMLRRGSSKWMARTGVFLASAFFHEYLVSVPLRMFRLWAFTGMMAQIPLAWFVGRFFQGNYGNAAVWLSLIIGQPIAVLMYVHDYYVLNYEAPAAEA

[8] = Dissociation constant, pKa of the compound; type: physicochemical
Mus musculus [9] = assay: Antiobesity activity in C57Bl6J mouse assessed as inhibition of corn oil-induced triacylglycerol excursion at 5 mg/kg, po administered at 30 mins post corn-oil challenge measured after 2 hrs by oral lipid tolerance test relative to control; type: functional
[10] = Apparent permeability from apical side to basolateral side of human Caco2 cells at 10 umol/l measured up to 120 mins by LCMS analysis; type: ADME, cell-based; settings: Caco-2
[11] = target: T4, Acyl-CoA wax alcohol acyltransferase 1 (Homo sapiens, UniProt Q58HT5); assay: Inhibition of human recombinant AWAT1 expressed in insect cell membrane using palmitoleyl alcohol and [14C]stearoyl coenzyme A as substrate after 10 to 15 mins by liquid scintillation counting
T4 sequence (Q58HT5 whole entry): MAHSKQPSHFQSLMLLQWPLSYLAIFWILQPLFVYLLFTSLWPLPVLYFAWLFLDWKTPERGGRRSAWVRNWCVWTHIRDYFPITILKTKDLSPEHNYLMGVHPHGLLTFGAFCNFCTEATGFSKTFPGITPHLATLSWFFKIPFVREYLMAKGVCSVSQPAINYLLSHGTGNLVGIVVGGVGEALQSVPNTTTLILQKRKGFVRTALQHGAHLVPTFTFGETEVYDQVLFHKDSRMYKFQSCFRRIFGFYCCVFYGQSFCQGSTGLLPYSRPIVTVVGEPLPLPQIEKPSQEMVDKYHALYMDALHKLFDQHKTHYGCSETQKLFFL

[12] = Time dependent inhibition of CYP450 (unknown origin); type: ADME; settings: human
[13] = Lipophilicity, log D of the compound at pH 7.4; type: physicochemical; settings: buffer
Liver microsomes = assay: Ratio of compound-glutathione adduct formation to clozapine-glutathione adduct formation in human liver microsomes at 10 umol/l after 30 mins by glutathione trapping method; type: ADME, Microsome; settings: 0.5 h, 10 µM
[14] = Solubility of the compound; type: physicochemical

Row | SMILES | Tmax [1] | inhibition (INH) [2] | inhibition in vivo at 150 mg/kg (Mus musculus [3]) | IC50 [4] | microsomal CLint at 1 µM [5] | IC50 [6] | IC50 [7] | pKa [8] | inhibition in vivo at 5 mg/kg (Mus musculus [9]) | Papp A→B at 2 h, 10 µM [10] | IC50 [11] | inhibition (INH) [12] | logD [13] | Ratio (Liver microsomes) | solubility [14]
1 | CC[C@]1(C)NC(=O)c2cc(S(=O)(=O)Nc3ccc(F)cc3F)ccc2NC1=O | 30 min | Not Active | 68% | > 100 µM | < 5 µL/min/mg | > 10 µM | > 10 µM | 7.3 | 116% | 3.3 ×10⁻⁶ cm/s | > 100 µM | Not Active | – | – | –
2 | CC1(C)NC(=O)c2cc(S(=O)(=O)Nc3ccccc3)ccc2NC1=O | – | – | – | – | – | – | – | – | – | – | – | – | 1.6 | – | –
3 | O=C1NC2(CCCC2)C(=O)Nc2ccc(S(=O)(=O)Nc3ccc(Cl)cc3)cc21 | – | – | – | – | – | – | – | – | – | – | – | – | 3 | – | –
4 | CCC1(CC)NC(=O)c2cc(S(=O)(=O)Nc3ccc(F)cc3F)ccc2NC1=O | – | – | – | – | – | – | – | – | – | – | – | – | 2.2 | – | –
5 | CCC1(CC)CNc2ccc(S(=O)(=O)Nc3ccc(F)cc3F)cc2C(=O)N1 | – | Not Active | – | > 100 µM | 40 µL/min/mg | > 10 µM | > 10 µM | 8 | – | 16 ×10⁻⁶ cm/s | > 100 µM | Not Active | – | 1.8 | –
6 | CC[C@]1(C)NC(=O)c2cc(S(=O)(=O)Nc3ccc(C(F)(F)F)cc3)ccc2NC1=O | – | Not Active | – | > 100 µM | < 5 µL/min/mg | > 10 µM | > 10 µM | 6.9 | – | 3.1 ×10⁻⁶ cm/s | > 100 µM | Not Active | – | – | –
7 | CC[C@]1(C)NC(=O)c2cc(S(=O)(=O)Nc3ccc(OC(F)F)cc3)ccc2NC1=O | – | Not Active | – | > 100 µM | 2.8 µL/min/mg | > 10 µM | > 10 µM | 7.9 | – | 1.1 ×10⁻⁶ cm/s | > 100 µM | Not Active | – | – | –
8 | CCC1(C)NC(=O)c2cc(S(=O)(=O)Nc3ccc(OC(F)F)cc3)ccc2NC1=O (racemic) | – | – | – | – | – | – | – | – | – | – | – | – | 2.3 | – | –
9 | CCC1(C)NC(=O)c2cc(S(=O)(=O)Nc3ccc(F)cc3F)ccc2NC1=O (racemic) | – | – | – | – | – | – | – | – | – | – | – | – | 1.8 | – | –
10 | CCC1NC(=O)c2cc(S(=O)(=O)Nc3ccccc3)ccc2NC1=O (racemic) | – | – | – | – | – | – | – | – | – | – | – | – | 1.6 | – | –
11 | CCCC1(C)NC(=O)c2cc(S(=O)(=O)Nc3ccc(F)cc3F)ccc2NC1=O (racemic) | – | – | – | – | – | – | – | – | – | – | – | – | 2.2 | – | –
12 | CCC1(C)NC(=O)c2cc(S(=O)(=O)N(C)c3ccccc3)ccc2NC1=O (racemic) | – | Not Active | – | > 100 µM | 221 µL/min/mg | > 10 µM | > 10 µM | – | – | 36 ×10⁻⁶ cm/s | > 100 µM | Not Active | – | 0 | –
13 | CCC1(C)NC(=O)c2cc(S(=O)(=O)Nc3ccc(Cl)cc3)ccc2N(C)C1=O (racemic) | – | Not Active | – | > 100 µM | 7 µL/min/mg | > 10 µM | > 10 µM | 7.9 | – | 20 ×10⁻⁶ cm/s | > 100 µM | Not Active | – | – | –
14 | CCC1(C)C(=O)Nc2ccc(S(=O)(=O)Nc3ccc(F)cc3F)cc2C(=O)N1C (racemic) | – | Not Active | – | > 100 µM | 9 µL/min/mg | > 10 µM | > 10 µM | 7.1 | – | 8.1 ×10⁻⁶ cm/s | > 100 µM | Not Active | – | – | –
15 | CCC1(C)NC(=O)c2cc(S(=O)(=O)Nc3ccccc3)ccc2NC1=O (racemic) | – | Not Active | – | > 100 µM | < 5 µL/min/mg | > 10 µM | > 10 µM | 8.7 | – | 2.4 ×10⁻⁶ cm/s | > 100 µM | Not Active | 1.9 | – | –
16 | CCC1(C)NC(=O)c2cc(S(=O)(=O)NCc3ccccc3)ccc2NC1=O (racemic) | – | – | – | – | – | – | – | – | – | – | – | – | 1.8 | – | –
17 | CCC1(C)NC(=O)c2cc(S(=O)(=O)NC3CCCCC3)ccc2NC1=O (racemic) | – | – | – | – | – | – | – | – | – | – | – | – | 2 | – | –
18 | CCC1(C)NC(=O)c2cc(S(=O)(=O)Nc3ccc(Cl)cc3)ccc2NC1=O (racemic) | – | Not Active | – | > 100 µM | 3 µL/min/mg | > 10 µM | > 10 µM | 8.1 | – | 5.5 ×10⁻⁶ cm/s | > 100 µM | Not Active | 2.9 | 0.4 | 2 µM (≈ 0.816 µg/mL)
19 | CCC1(C)NC(=O)c2cc(S(=O)(=O)Nc3ccccc3Cl)ccc2NC1=O (racemic) | – | Not Active | – | > 100 µM | < 5 µL/min/mg | > 10 µM | > 10 µM | 7.2 | – | 6.4 ×10⁻⁶ cm/s | > 100 µM | Not Active | 1.9 | 0.1 | –
20 | CCC1(C)NC(=O)c2cc(S(=O)(=O)Nc3ccc(C(F)(F)F)cc3)ccc2NC1=O (racemic) | – | – | – | – | – | – | – | – | – | – | – | – | 3.1 | – | –
21 | CCC1(C)NC(=O)c2cc(S(=O)(=O)Nc3ccc(OC)cc3)ccc2NC1=O (racemic) | – | Not Active | – | > 100 µM | 16 µL/min/mg | > 10 µM | > 10 µM | 5.6 | – | 1.5 ×10⁻⁶ cm/s | > 100 µM | Not Active | 1.8 | – | –
